The first assay addresses human GluN1/GluN2B NMDA receptors (Homo sapiens, UniProt Q05586+Q13224). As to the kind of experiment: Cell-based calcium flux (FLIPR) assay on cloned human NR1/NR2B ion channels expressed in mammalian cells. The conditions noted are these: standard assay; glutamate at ~EC80; FLIPR calcium flux. In short, it runs like this: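 Calcium influx followed by FLIPR fluorescence after 5 min compound exposure and a further 5 min co-agonist challenge: 10 μM glycine with glutamate at ~EC80 (standard) or EC40 (HTS).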
human GluN1/GluN2B NMDA receptors, sequence (Q13224 27-1484, other chains not shown): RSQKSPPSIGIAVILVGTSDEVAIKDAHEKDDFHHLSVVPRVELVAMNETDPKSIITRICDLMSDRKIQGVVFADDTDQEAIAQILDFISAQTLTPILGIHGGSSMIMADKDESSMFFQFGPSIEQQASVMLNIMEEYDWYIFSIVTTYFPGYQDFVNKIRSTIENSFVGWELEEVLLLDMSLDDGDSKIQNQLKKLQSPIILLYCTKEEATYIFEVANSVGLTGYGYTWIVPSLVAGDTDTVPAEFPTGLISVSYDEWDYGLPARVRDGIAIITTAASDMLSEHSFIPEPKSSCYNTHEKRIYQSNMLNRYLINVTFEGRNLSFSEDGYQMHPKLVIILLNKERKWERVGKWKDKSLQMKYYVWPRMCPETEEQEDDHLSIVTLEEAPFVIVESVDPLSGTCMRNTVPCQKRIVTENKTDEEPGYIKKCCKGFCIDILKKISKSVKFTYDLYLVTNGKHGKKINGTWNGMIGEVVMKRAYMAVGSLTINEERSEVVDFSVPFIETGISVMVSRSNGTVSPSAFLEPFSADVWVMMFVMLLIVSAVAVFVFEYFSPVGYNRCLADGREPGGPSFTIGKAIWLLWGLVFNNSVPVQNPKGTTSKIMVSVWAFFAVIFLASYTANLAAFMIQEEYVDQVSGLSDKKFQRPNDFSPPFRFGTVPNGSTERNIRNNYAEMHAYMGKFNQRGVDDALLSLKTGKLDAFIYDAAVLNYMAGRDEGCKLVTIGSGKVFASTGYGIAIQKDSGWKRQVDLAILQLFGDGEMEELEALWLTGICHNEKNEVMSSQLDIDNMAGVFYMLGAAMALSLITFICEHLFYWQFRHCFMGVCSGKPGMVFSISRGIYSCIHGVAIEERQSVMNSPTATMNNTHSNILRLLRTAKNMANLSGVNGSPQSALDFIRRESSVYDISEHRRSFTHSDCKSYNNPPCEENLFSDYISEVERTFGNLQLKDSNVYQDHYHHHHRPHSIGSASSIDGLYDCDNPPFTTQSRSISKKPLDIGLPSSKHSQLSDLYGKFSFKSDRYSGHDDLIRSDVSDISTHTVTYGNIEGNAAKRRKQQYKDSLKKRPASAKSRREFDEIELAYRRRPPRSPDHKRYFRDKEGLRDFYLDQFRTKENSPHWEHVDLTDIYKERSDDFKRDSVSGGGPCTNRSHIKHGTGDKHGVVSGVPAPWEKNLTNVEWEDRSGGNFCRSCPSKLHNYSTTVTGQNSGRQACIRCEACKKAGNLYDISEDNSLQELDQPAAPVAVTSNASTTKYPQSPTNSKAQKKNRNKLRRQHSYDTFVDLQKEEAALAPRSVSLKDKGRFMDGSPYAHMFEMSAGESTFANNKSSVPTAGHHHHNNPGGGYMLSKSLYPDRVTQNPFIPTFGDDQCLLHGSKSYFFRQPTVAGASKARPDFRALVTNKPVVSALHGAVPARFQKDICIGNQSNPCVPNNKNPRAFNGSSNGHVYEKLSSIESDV
Broadly, the IC50 is the midpoint of a concentration-inhibition curve. On to `Cc1cc(OCc2cn(-c3ccc(F)c(C)c3)nn2)ncn1` [Example 462, 4-[[1-(4-Fluoro-3-methyl-phenyl)triazol-4-yl]methoxy]-6-methyl-pyrimidine], for which the concentration for half-maximal inhibition (IC50) was 3.03 µM.

Regarding `Cc1cnc(OCc2cn(-c3ccc(N4CCC4)c(C(F)F)c3)nn2)nc1` [Example 638, 2-((1-(4-(Azetidin-1-yl)-3-(difluoromethyl)phenyl)-1H-1,2,3-triazol-4-yl)methoxy)-5-methylpyrimidine], the 50% inhibitory concentration (IC50) is 0.511 µM.

Consider `Fc1ccc(-n2cc(COc3ncccn3)nn2)cc1Cl` [Example 619, 2-[[1-(3-Chloro-4-fluoro-phenyl)triazol-4-yl]methoxy]pyrimidine], for which the concentration for half-maximal inhibition (IC50) worked out at 0.217 µM.

Consider `Fc1c(Cl)cccc1-n1cc(COc2ncc(Cl)cn2)nn1` [Example 612, 5-Chloro-2-[[1-(3-chloro-2-fluoro-phenyl)triazol-4-yl]methoxy]pyrimidine], for which the half-maximal inhibitory concentration (IC50) turned out to be 1.74 µM.

`COc1ccnc(OCc2cn(-c3ccc(F)c(OC(F)F)c3)nn2)n1` [Example 497, 2-[[1-[3-(Difluoromethoxy)-4-fluoro-phenyl]triazol-4-yl]methoxy]-4-methoxy-pyrimidine]: the concentration for half-maximal inhibition (IC50) is 0.028 µM.

`Fc1ccc(-n2cc(COc3nccc(COCC(F)F)n3)nn2)cc1OC(F)F` [Example 716, 4-((2,2-Difluoroethoxy)methyl)-2-((1-(3-(difluoromethoxy)-4-fluorophenyl)-1H-1,2,3-triazol-4-yl)methoxy)pyrimidine]: the IC50 was 0.049 µM.

The assay is the same for the next values; noted with them: standard assay; human GluN1/GluN2B, calcium flux (FLIPR), glutamate ~EC80.
Regarding `Cc1cnc(OCc2cn(-c3cc(C)cc(C)c3)nn2)nc1` [Example 364, 2-[[1-(3,5-Dimethylphenyl)triazol-4-yl]methoxy]-5-methyl-pyrimidine], the IC50 worked out at 0.027 µM.

For the compound `Cc1nc(OCc2cn(-c3cccc(C(F)F)c3)nn2)ncc1F` [Example 278, 2-[[1-[3-(Difluoromethyl)phenyl]triazol-4-yl]methoxy]-5-fluoro-4-methyl-pyrimidine], the half-inhibitory concentration (IC50) worked out at 0.042 µM.

For the compound `Clc1ccc(-n2cc(COc3ncc(Cl)cn3)nn2)cc1` [Example 225, 5-Chloro-2-[[1-(4-chlorophenyl)triazol-4-yl]methoxy]pyrimidine], the 50% inhibitory concentration (IC50) is 0.07 µM.

On to `Cc1cnc(OCc2cn(-c3ccc(Cl)c(OC(F)F)c3)nn2)nc1C` [Example 372, 2-[[1-[4-Chloro-3-(difluoromethoxy)phenyl]triazol-4-yl]methoxy]-4,5-dimethyl-pyrimidine], for which the 50% inhibitory concentration (IC50) is 0.008 µM.

Turning to `Cn1nccc1NCc1cn(-c2ccc(F)c(C(F)F)c2)nn1` [Example 219, N-((1-(3-(Difluoromethyl)-4-fluorophenyl)-1H-1,2,3-triazol-4-yl)methyl)-1-methyl-1H-pyrazol-5-amine], the 50% inhibitory concentration (IC50) was above 10 µM.

As to `Cc1c(F)ccc(-n2cc(COc3ncc(Cl)cn3)nn2)c1F` [Example 37, 5-Chloro-2-[[1-(2,4-difluoro-3-methyl-phenyl)triazol-4-yl]methoxy]pyrimidine], the IC50 stood at 0.053 µM.

Take `COc1ccnc(OCc2cn(-c3cccc(C(C)(F)F)c3)nn2)n1` [Example 307, 2-[[1-[3-(1,1-Difluoroethyl)phenyl]triazol-4-yl]methoxy]-4-methoxy-pyrimidine]: the 50% inhibitory concentration (IC50) was 0.033 µM.

Take `COC(C)c1cnc(OCc2cn(-c3cccc(C(C)(F)F)c3)nn2)nc1` (racemic) [Example 311, (R/S)-2-[[1-[3-(1,1-Difluoroethyl)phenyl]triazol-4-yl]methoxy]-5-(1-methoxyethyl)pyrimidine]: the IC50 turned out to be 1.58 µM.

For `Cc1cnc(OCc2cn(-c3cccc(C)n3)nn2)nc1` [Example 174, 5-Methyl-2-[[1-(6-methyl-2-pyridyl)triazol-4-yl]methoxy]pyrimidine], the IC50 is above 2.99 µM.

As to `Fc1cnc(OCc2cn(-c3cccc(OC(F)(F)F)c3)nn2)nc1` [Example 348, 5-Fluoro-2-[[1-[3-(trifluoromethoxy)phenyl]triazol-4-yl]methoxy]pyrimidine], the IC50 was 0.447 µM.

The values above are taken from patent US10233173B2, “Substituted 1,2,3-triazoles as NR2B-selective NMDA modulators” (JANSSEN PHARMACEUTICA NV, priority 2016, dated 2019).
